One assay has as its target T1, PRMT4 (Homo sapiens, UniProt Q86X55).
T1 construct: gene CARM1
T1 sequence (Q86X55 1-608): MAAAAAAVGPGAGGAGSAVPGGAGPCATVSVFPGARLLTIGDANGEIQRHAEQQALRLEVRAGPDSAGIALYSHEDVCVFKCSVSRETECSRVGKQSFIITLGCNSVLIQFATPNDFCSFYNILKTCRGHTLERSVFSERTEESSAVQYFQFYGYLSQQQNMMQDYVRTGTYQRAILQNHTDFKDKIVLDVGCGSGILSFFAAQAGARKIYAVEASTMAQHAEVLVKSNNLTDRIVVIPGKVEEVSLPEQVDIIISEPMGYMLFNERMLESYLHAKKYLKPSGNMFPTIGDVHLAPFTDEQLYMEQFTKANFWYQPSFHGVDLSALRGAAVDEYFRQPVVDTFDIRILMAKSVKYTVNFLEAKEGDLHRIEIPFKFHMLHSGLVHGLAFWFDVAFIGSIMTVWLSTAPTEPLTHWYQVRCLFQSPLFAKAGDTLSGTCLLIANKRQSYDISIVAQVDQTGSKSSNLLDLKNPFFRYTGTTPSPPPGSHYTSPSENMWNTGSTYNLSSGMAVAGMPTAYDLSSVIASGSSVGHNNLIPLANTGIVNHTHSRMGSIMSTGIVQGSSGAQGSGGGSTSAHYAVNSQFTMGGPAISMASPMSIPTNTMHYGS
The experiment in a line: biochemical. On the set-up: radiometric methyltransferase assay with tritiated SAM, IC50. As to the method:
The methyltransferase selectivity was assessed at two compound concentrations of 1 and 10 μM by radiometric assays using tritiated-SAM. For methyltransferases: MLL1, MLL3, EZH1 (PRC2), and EZH2 (PRC2), G9a, GLP, SUV39H1, SUV39H2, SUV420H1, SUV420H2, SETD2, SETD8, SETDB1, SETD7, PRMT1, PRMT3, PRMT4, PRMT5/ MEP50 complex, PRMT6, PRMT7, PRMT8, PRMT9, PRDM9, SMYD2, SMYD3, DNMT1, and BCDIN3D the incorporation of a tritium-labeled methyl group into biotinylated substrate was monitored using scintillation proximity assay (SPA). Briefly, a 10 μL reaction containing ^3H-SAM and substrate at concentrations close to the apparent Km values for each enzyme (balanced conditions) was prepared. The reactions were quenched with 10 μL of 7.5 M guanidine hydrochloride; 180 μL of 20 mM Tris buffer (pH 8.0) were added, and the mixture was transferred to a 96-well FlashPlate and incubated for 1 h. The counts per minute (CPM) was measured on a TopCount plate reader. The CPM in the absence of compound or enzyme was defined as 100% activity and background (0%), respectively, for each dataset[74]–[76]. Selectivity of SGC8158 against 342 kinases was evaluated in a kinase panel TR-FRET assay at 1 and 0.1 μM compound in duplicates as described before. Briefly, tagged kinases were incubated with compound and staurosporine-based fluorescent probe where the binding was detected using Tb conjugated anti-tag antibody energy transfer to the probe. Excitation wavelength was 337 nm and fluorescent emission signal was measured for Tb (486 nm) and fluorescent probe (BODIPY, 515 nm). Specific and non-specific binding was determined in the absence and presence of unlabeled staurosporine. Assays using biotinylated H2B (23–37) as a substrate were performed in buffer (20 mM Tris–HCl, pH 8.5, 0.01% Tween-20, and 5 mM DTT) containing 5 nM PRMT7, 1.1 µM ^3H-SAM (Cat.# NET155V250UC; Perkin Elmer; www.perkinelmer.com) and 0.3 µM H2B (23–37). The reaction mixtures were incubated for 60 min at 23 °C. To stop the enzymatic reactions, 10 µL of 7.5 M guanidine hydrochloride was added, followed by 180 µL of buffer (20 mM Tris, pH 8.0), mixed and then transferred to a 96-well FlashPlate (Cat.# SMP103; Perkin Elmer; www.perkinelmer.com). After mixing, the reaction mixtures in Flash plates were incubated for 1 h and the CPM were measured using Topcount plate reader (Perkin Elmer, www.perkinelmer.com). The CPM counts in the absence of compound for each dataset were defined as 100% activity. In the absence of the enzyme, the CPM counts in each dataset were defined as background (0%). The IC50 values were determined using GraphPad Prism 7 software. For the kinetic analysis of HSPA8 methylation by PRMT7, the assay mixture contained 20 mM Tris–HCl, pH 8.5, 0.01% Tween-20, and 5 mM dithiothreitol (DTT), 1 mM MgCl2, 1 mM ATP where indicated, 250 nM PRMT7, fixed concentration (20 µM) of SAM, various concentrations (up to 40 µM) of HSPA8; or fixed concentration (10 µM) of HSPA8 with different concentrations of SAM (up to 20 µM). […] To determine the mode of action, the experiments were performed in the presence of fixed biotinylated H2B peptide (residues 23–37) or HSPA8 substrate concentration and increasing SAM concentration or at fixed concentration of SAM and varying concentration of the substrate. Twenty µL of reaction mixtures were incubated at 23 °C for 60 min. To stop reactions, 100 µL of 10% trichloroacetic acid (TCA) was added, mixed and transferred to filter-plates (Millipore; cat.# MSFBN6B10; www.millipore.com). Plates were centrifuged at 930 × g (Allegra X-15R—Beckman Coulter, Inc.) for 2 min followed by two additional 10% TCA washes and one ethanol wash followed by centrifugation. Plates were dried and 30 µL MicroScint-O (

The next assay concerns the target T2, PRMT7 (Homo sapiens, UniProt Q9NVM4).
T2 sequence (Q9NVM4 1-692): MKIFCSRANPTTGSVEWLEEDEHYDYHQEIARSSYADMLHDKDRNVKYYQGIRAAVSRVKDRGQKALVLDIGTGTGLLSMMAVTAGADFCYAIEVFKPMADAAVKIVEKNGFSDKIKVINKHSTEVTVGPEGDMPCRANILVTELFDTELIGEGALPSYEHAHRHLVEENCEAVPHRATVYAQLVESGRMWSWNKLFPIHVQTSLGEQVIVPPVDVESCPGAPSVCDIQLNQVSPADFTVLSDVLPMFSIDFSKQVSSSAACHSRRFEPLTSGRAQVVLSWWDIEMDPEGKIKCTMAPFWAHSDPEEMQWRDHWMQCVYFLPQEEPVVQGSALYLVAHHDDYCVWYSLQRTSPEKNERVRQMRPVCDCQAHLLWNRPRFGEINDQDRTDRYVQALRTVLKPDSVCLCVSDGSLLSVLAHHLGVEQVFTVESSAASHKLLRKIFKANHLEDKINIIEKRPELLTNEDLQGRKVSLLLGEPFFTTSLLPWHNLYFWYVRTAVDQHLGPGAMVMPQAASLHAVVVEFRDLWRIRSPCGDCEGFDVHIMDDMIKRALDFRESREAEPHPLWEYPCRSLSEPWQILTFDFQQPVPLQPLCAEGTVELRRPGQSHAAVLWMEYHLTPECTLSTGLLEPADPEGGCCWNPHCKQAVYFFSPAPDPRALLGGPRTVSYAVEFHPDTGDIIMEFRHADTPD
The experiment in a line: radiometric SPA methyltransferase assay, 3H-SAM and H2B ([…]). In kind it is biochemical.

What is called IC50 is the concentration at which inhibition is half-maximal. In the case of `Nc1ncnc2c1ncn2[C@@H]1O[C@H](CSCCCNCc2cccc(-c3ccc(Cl)cc3)c2)[C@@H](O)[C@H]1O` [SGC8172], the 50% inhibitory concentration (IC50) at PRMT4 was 3.6 nM; against PRMT7 it was less than 2.5 nM.
